Molecules are shown by their SMILES. Several values for one entry are separate records, joined by “and”; a condition that tells them apart may be missing. Identical values can stand only once.

This data set is described as follows: Validation of stability of H3N2b in urine, plasma, CSF, stock solution and standard curve matrix. It is filed as physicochemical, human. The procedure:
Validation of stability-The long-term storage, freeze/thaw stabilities, and stabilities on the bench-top and in the autosampler were determined at the LQC and HQC concentration levels (n=3). Long-term storage stabilities of […]-80° C. in urine, plasma, CSF were tested. Bench-top stabilities of […] were evaluated in urine at room temperature, in plasma at room temperature, in CSF at room temperature and 4° C. Freeze/thaw stability in urine, plasma, CSF was tested by freezing the samples at -80° C. overnight, followed by thawing to room temperature the next day. This process was repeated three times. […] Stock solution stability was established by quantification of samples from dilution of two stock solutions that were stored at -20° C. and at room temperature on the bench, respectively, to the final solution (10000 ng/mL in water). The stabilities of […] in the matrix of standard curve for urine, plasma, CSF were test after storage at room temperature and at -80° C. […] standard curve was established each time.

Take `CC(=O)N[C@H]1[C@H](O[C@@H]2[C@@H](O[C@@H]3[C@H](O)[C@H](O[C@H]4[C@H](O)[C@@H](NC(C)=O)C(O)O[C@@H]4CO)O[C@H](CO)[C@H]3O)O[C@H](CO)[C@@H](O)[C@@H]2O)O[C@H](CO)[C@@H](O[C@@H]2O[C@H](CO)[C@H](O)[C@H](O)[C@H]2O)[C@@H]1O` (stereo partly drawn) [H3N2b, O-β-D-galactopyranosyl-(1→4)-O-(2-acetamido-2-deoxy-β-D-glucopyranosyl)-(1→2)-O-α-D-mannopyranosyl-(1→3)-O-β-D-mannopyranosyl-(1→4)-2-acetamido-2-deoxy-α,β-D-glucopyranose]: the “Stable after freeze/thaw cycles” value worked out at 3 freeze/thaw cycles (CSF), 3 freeze/thaw cycles (plasma) and 3 freeze/thaw cycles (urine). Further, the “Stable for” value amounted to 1 days (CSF at 4° C.); 125 days (CSF at −80° C.); 0.083 days (CSF, room temperature); 1 days (matrix of standard curve for urine, plasma, CSF, room temperature); 158 days (plasma at −80° C.); 1 days (plasma, room temperature). In addition, the “Stable for” value reads like this: (processed CSF samples at 4° C.) 3 days; (processed plasma samples at 4° C.) 3 days; (processed urine samples at 4° C.) 3 days; (standard curve samples for CSF at −80° C.) 125 days; (standard curve samples for plasma at −80° C.) 158 days; (standard curve samples for urine at −80° C.) 194 days. Further, the “Stable for” value (stock solution at −20° C.) was 232 days and 231 days; the “Stable for” value (stock solution, room temperature) amounted to 1 days; the “Stable for” value (urine at −80° C.) is 194 days; the “Stable for” value (urine, room temperature) was 1 days.

(Values after US20240329050A1, “METHODS OF DETECTING PENTASACCHARIDES AND TREATMENT AND MONITORING OF LYSOSOMAL STORAGE DISEASE” (Washington University, priority 2021, published 2024).)
